Source: patent publication US8080657B2, “Compounds of reverse turn mimetics and the use thereof” (Choongwae Pharma Corporation, priority 2008, dated 2011)

System: Wnt signaling
Experiment: TopFlash reporter gene bioassay in SW480 cells
Assay type: cell-based
Details: Homo sapiens, SW480, TopFlash reporter gene assay, inhibition of Wnt signaling; read-out: RGA, IC50 (μM) TopF

Row | SMILES | IC50 [µM]
1 | C=CCN1CC(=O)N2[C@@H](Cc3ccc(O)cc3)C(=O)N(Cc3cccc(C(C)(C)C)c3OC)C[C@@H]2N1C(=O)NCc1ccccc1 [compound 89] | 1.03 ± 0.11
2 | C=CCN1CC(=O)N2[C@@H](Cc3ccc(O)cc3)C(=O)N(Cc3cccc(N(C)C(=O)OC)c3)C[C@@H]2N1C(=O)NCc1ccccc1 [compound 109] | 1.35 ± 0.15
3 | C=CCN1CC(=O)N2[C@@H](Cc3ccc(O)cc3)C(=O)N(Cc3cccc4ccn(Cc5cccc([N+](=O)[O-])c5)c34)C[C@@H]2N1C(=O)NCc1ccccc1 [compound 204] | 3.13 ± 0.44
4 | C=CCN1CC(=O)N2[C@@H](Cc3ccc(O)cc3)C(=O)N(Cc3cccc(-c4ccccc4OC)c3)C[C@@H]2N1C(=O)NCc1ccccc1 [compound 127] | 1.61 ± 0.31
5 | C=CCN1CC(=O)N2[C@@H](Cc3ccc(O)c(Cl)c3)C(=O)N(Cc3cccc4scnc34)C[C@@H]2N1C(=O)NCc1ccccc1 [compound 234] | 40.2 ± 5.7
6 | C=CCN1CC(=O)N2[C@@H](Cc3ccc(O)cc3)C(=O)N(Cc3ccccc3N3CCCC3)C[C@@H]2N1C(=O)NCc1ccccc1 [compound 96] | 1.11 ± 0.25
7 | C=CCN1CC(=O)N2[C@@H](Cc3ccc(O)cc3)C(=O)N(Cc3csc4ccc([N+](=O)[O-])cc34)C[C@@H]2N1C(=O)NCc1ccccc1 [compound 32] | 0.56 ± 0.07
8 | C=CCN1CC(=O)N2[C@@H](Cc3ccc(O)cc3)C(=O)N(Cc3ccccc3-n3cnnn3)C[C@@H]2N1C(=O)NCc1ccccc1 [compound 164] | 15.7 ± 3.22
9 | C=CCN1CC(=O)N2[C@@H](Cc3ccc(O)cc3)C(=O)N(Cc3cccc(-c4ccc(OC)cc4)n3)C[C@@H]2N1C(=O)NCc1ccccc1 [compound 134] | 1.73 ± 0.35
10 | C=CCN1CC(=O)N2[C@@H](Cc3ccc(O)cc3)C(=O)N(Cc3ccnc(N)n3)C[C@@H]2N1C(=O)NCc1ccccc1 [compound 264] | 9.11 ± 1.82
11 | C=CCN1CC(=O)N2[C@@H](Cc3ccc(O)cc3)C(=O)N(Cc3cccc(-c4cccc(OC)c4)n3)C[C@@H]2N1C(=O)NCc1ccccc1 [compound 218] | 3.96 ± 0.93
12 | C=CCN1CC(=O)N2[C@@H](Cc3ccc(O)cc3)C(=O)N(Cc3ccc(F)c(C#N)c3)C[C@@H]2N1C(=O)NCc1ccccc1 [compound 69] | 0.87 ± 0.32
13 | C=CCN1CC(=O)N2[C@@H](Cc3ccc(O)cc3)C(=O)N(Cc3cccc(-c4ccc(F)cc4)n3)C[C@@H]2N1C(=O)NCc1ccccc1 [compound 141] | 1.91 ± 0.28
14 | C=CCN1CC(=O)N2[C@@H](Cc3ccc(O)cc3)C(=O)N(Cc3cccc4cc[nH]c34)C[C@@H]2N1C(=O)NCc1ccccc1 [compound 65] | 0.83 ± 0.22
15 | C=CCN1CC(=O)N2[C@@H](Cc3ccc(O)cc3)C(=O)N(Cc3cccc(C(=O)OC)c3)C[C@@H]2N1C(=O)NCc1ccccc1 [compound 46] | 0.69 ± 0.15
16 | C=CCN1CC(=O)N2[C@@H](Cc3ccc(O)cc3)C(=O)N(Cc3cccc(C(=O)NC)c3)C[C@@H]2N1C(=O)NCc1ccccc1 [compound 183] | 52.5 ± 0.32
17 | C=CCN1CC(=O)N2[C@@H](Cc3ccc(O)cc3)C(=O)N(Cc3csc4ccc(F)cc34)C[C@@H]2N1C(=O)NCc1ccccc1 [compound 21] | 0.45 ± 0.05
18 | C=CCN1CC(=O)N2[C@@H](Cc3ccc(O)cc3)C(=O)N(Cc3cccc(-c4ccccc4)n3)C[C@@H]2N1C(=O)NCc1ccccc1 [compound 186] | 2.66 ± 0.74
19 | C=CCN1CC(=O)N2[C@@H](Cc3ccc(O)cc3)C(=O)N(Cc3ccc(OC)c(Br)c3)C[C@@H]2N1C(=O)NCc1ccccc1 [compound 129] | 1.64 ± 0.27
20 | C=CCN1CC(=O)N2[C@@H](Cc3ccc(O)cc3)C(=O)N(Cc3csc4ccc(N(Cc5ccccc5)Cc5ccccc5)cc34)C[C@@H]2N1C(=O)NCc1ccccc1 [compound 200] | 25.9 ± 4.72
21 | C=CCN1CC(=O)N2[C@@H](Cc3ccc(O)cc3)C(=O)N(Cc3csc4c(NC(=O)OC)cccc34)C[C@@H]2N1C(=O)NCc1ccccc1 [compound 167] | 19.4 ± 3.4
22 | C=CCN1CC(=O)N2[C@@H](Cc3ccc(O)cc3)C(=O)N(Cc3cccc4c(-c5ccccc5)cn(S(=O)(=O)c5ccccc5)c34)C[C@@H]2N1C(=O)NCc1ccccc1 [compound 27] | 0.52 ± 0.09
23 | C=CCN1CC(=O)N2[C@@H](Cc3ccc(OS(=O)(=O)NC)cc3)C(=O)N(Cc3ccc(F)cc3F)C[C@@H]2N1C(=O)NCc1ccccc1 [compound 151] | 10.2 ± 2.3
24 | C=CCN1CC(=O)N2[C@@H](Cc3ccc(O)cc3)C(=O)N(CC3=CS(=O)(=O)c4ccccc43)C[C@@H]2N1C(=O)NCc1ccccc1 [compound 263] | 9.09 ± 0.67
25 | C=CCN1CC(=O)N2[C@@H](Cc3ccc(O)cc3)C(=O)N(Cc3cccc(-c4ncc[nH]4)c3)C[C@@H]2N1C(=O)NCc1ccccc1 [compound 209] | 3.3 ± 0.58

Row | SMILES | IC50 [µM]
26 | C=CCN1CC(=O)N2[C@@H](Cc3ccc(O)cc3)C(=O)N(Cc3ccc(OCC)cc3)C[C@@H]2N1C(=O)NCc1ccccc1 [compound 249] | 6.8 ± 1.5
27 | C=CCN1CC(=O)N2[C@@H](Cc3ccc(O)cc3C)C(=O)N(Cc3ccc(F)cc3F)C[C@@H]2N1C(=O)NCc1ccccc1 [compound 196] | 21.2 ± 2.15
28 | C=CCN1CC(=O)N2[C@@H](Cc3ccc(O)cc3)C(=O)N(Cc3cccc(-c4ccsc4)c3)C[C@@H]2N1C(=O)NCc1ccccc1 [compound 72] | 0.9 ± 0.13
29 | C=CCN1CC(=O)N2[C@@H](Cc3ccc(OS(N)(=O)=O)cc3)C(=O)N(Cc3cccc4c(C(C)=O)c[nH]c34)C[C@@H]2N1C(=O)NCc1ccccc1 [compound 29] | 0.53 ± 0.24
30 | C=CCN1CC(=O)N2[C@@H](Cc3ccc(O)cc3)C(=O)N(Cc3cccc(NC=O)c3)C[C@@H]2N1C(=O)NCc1ccccc1 [compound 57] | 0.76 ± 0.12
31 | C=CCN1CC(=O)N2C(CN(Cc3cccc(-c4ccc(SC)cc4)n3)C(=O)[C@@H]2Cc2ccc(O)cc2)N1C(=O)NCc1ccccc1 (stereo partly shown) [compound 179] | 2.42 ± 0.32
32 | C=CCCNC(=O)c1cccc(CN2C[C@H]3N(C(=O)CN(CC=C)N3C(=O)NCc3ccccc3)[C@@H](Cc3ccc(O)cc3)C2=O)c1 [compound 76] | 0.94 ± 0.04
33 | C=CCN1CC(=O)N2[C@@H](Cc3ccc(O)cc3)C(=O)N(Cc3cccnc3-c3ccc(OC)cc3)C[C@@H]2N1C(=O)NCc1ccccc1 [compound 180] | 2.42 ± 0.47
34 | C=CCN1CC(=O)N2[C@@H](Cc3ccc(O)cc3)C(=O)N(Cc3cccc(C(=O)NC4CCCCC4)c3)C[C@@H]2N1C(=O)NCc1ccccc1 [compound 38] | 0.61 ± 0.09
35 | C=CCN1CC(=O)N2[C@@H](Cc3ccc(O)cc3)C(=O)N(Cc3cccc4c3nc(C(F)(F)F)n4C)C[C@@H]2N1C(=O)NCc1ccccc1 [compound 93] | 1.07 ± 0.2
36 | C=CCN1CC(=O)N2[C@@H](Cc3ccc(O)cc3)C(=O)N(Cc3ccc(OC)c(-c4cccnc4)c3)C[C@@H]2N1C(=O)NCc1ccccc1 [compound 208] | 3.27 ± 0.8
37 | C=CCOc1ccc(CN2C[C@H]3N(C(=O)CN(CC=C)N3C(=O)NCc3ccccc3)[C@@H](Cc3ccc(O)cc3)C2=O)cc1 [compound 123] | 1.55 ± 0.21
38 | C=CCN1CC(=O)N2[C@@H](Cc3ccc(O)cc3)C(=O)N(Cc3cccc(C(=O)NO)c3)C[C@@H]2N1C(=O)NCc1ccccc1 [compound 265] | 9.3 ± 0.53
39 | C=CCN1CC(=O)N2[C@@H](Cc3ccc(O)cc3)C(=O)N(Cc3csc4cc(NC=O)ccc34)C[C@@H]2N1C(=O)NCc1ccccc1 [compound 111] | 1.41 ± 0.21
40 | C=CCN1CC(=O)N2[C@@H](Cc3ccc(O)cc3)C(=O)N(Cc3cccc4c(C(C)=O)cn(S(=O)(=O)c5ccc(C)cc5)c34)C[C@@H]2N1C(=O)NCc1ccccc1 [compound 2] | 0.084 ± 0.016
41 | C=CCN1CC(=O)N2[C@@H](Cc3ccc(O)cc3)C(=O)N(Cc3csc4cc(N)ccc34)C[C@@H]2N1C(=O)NCc1ccccc1 [compound 68] | 0.86 ± 0.09
42 | C=CCN1CC(=O)N2[C@@H](Cc3ccc(OCC(O)CO)cc3)C(=O)N(Cc3cccc4scnc34)C[C@@H]2N1C(=O)NCc1ccccc1 (stereo partly shown) [compound 222] | 36.4 ± 2
43 | C=CCN1CC(=O)N2[C@@H](Cc3ccc(O)cc3)C(=O)N(Cc3cccnc3N3CCC(N4CCCC4)CC3)C[C@@H]2N1C(=O)NCc1ccccc1 [compound 199] | 25.9 ± 3.38
44 | C=CCN1CC(=O)N2[C@@H](Cc3ccc(O)cc3)C(=O)N(Cc3ccc(F)c(OCCN4CCOCC4)c3)C[C@@H]2N1C(=O)NCc1ccccc1 [compound 70] | 0.9 ± 0.2
45 | C=CCN1CC(=O)N2[C@@H](Cc3ccc(O)cc3)C(=O)N(Cc3cccc(-c4cccc(C#N)c4)c3)C[C@@H]2N1C(=O)NCc1ccccc1 [compound 126] | 1.58 ± 0.27
46 | C=CCN1CC(=O)N2[C@@H](CC3=CC(=O)NC3=O)C(=O)N(Cc3cccc4scnc34)C[C@@H]2N1C(=O)NCc1ccccc1 [compound 192] | 2.85 ± 0.79
47 | C=CCOc1c(CN2C[C@H]3N(C(=O)CN(CC=C)N3C(=O)NCc3ccccc3)[C@@H](Cc3ccc(O)cc3)C2=O)cccc1C(C)(C)C [compound 143] | 1.93 ± 0.18
48 | C=CCN1CC(=O)N2[C@@H](Cc3ccc(O)cc3)C(=O)N(Cc3cccc(C(=O)NOC)c3)C[C@@H]2N1C(=O)NCc1ccccc1 [compound 182] | 2.48 ± 0.22
49 | C=CCN1CC(=O)N2[C@@H](Cc3ccc(O)cc3)C(=O)N(Cc3cccc(-c4cccc(C#N)c4)n3)C[C@@H]2N1C(=O)NCc1ccccc1 [compound 191] | 2.81 ± 0.52

Same assay, conditions: Homo sapiens, SW480; read-out: RGA, IC50 (μM) TopF

Row | SMILES | IC50 [µM]
50 | C=CCN1CC(=O)N2[C@@H](Cc3ccc(OC(N)=O)cc3)C(=O)N(Cc3ccc(F)cc3F)C[C@@H]2N1C(=O)NCc1ccccc1 [compound 251] | 1.14 ± 0.07
51 | C=CCN1CC(=O)N2[C@@H](Cc3ccc(O)cc3)C(=O)N(Cc3cccc4cc[nH]c34)C[C@@H]2N1C(=O)NCc1ccccn1 [compound 205] | 3.14 ± 0.68
52 | C=CCN1CC(=O)N2[C@@H](Cc3ccc(OP(=O)(O)O)cc3)C(=O)N(Cc3cccc(N4CCCC4=O)c3)C[C@@H]2N1C(=O)NCc1ccccc1 [compound 94] | 1.09 ± 0.16
53 | C=CCN1CC(=O)N2[C@@H](Cc3ccc(OP(=O)(O)O)cc3)C(=O)N(Cc3cccc4c(-c5ccccc5)c[nH]c34)C[C@@H]2N1C(=O)NCc1ccccc1 [compound 22] | 0.45 ± 0.29
54 | C=CCN1CC(=O)N2[C@@H](Cc3ccc(OP(=O)(O)O)cc3)C(=O)N(Cc3csc4ccccc34)C[C@@H]2N1C(=O)NCc1ccccc1 [compound 35] | 0.59 ± 0.066

Same assay, conditions: TopFlash reporter gene assay, inhibition of Wnt signaling; read-out: RGA, IC50 (μM) TopF

Row | SMILES | IC50 [µM]
55 | C=CCN1CC(=O)N2[C@@H](Cc3ccc(O)cc3)C(=O)N(Cc3csc4cc(NC(=O)NC)ccc34)C[C@@H]2N1C(=O)NCc1ccccc1 [compound 157] | 12.4 ± 2.36
